Results: PubChem BioAssay (NCI)
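Compound exposure: 48 hours, 5 concentrations, 96-well plates. Abbreviation: GI50, concentration required for 50% inhibition of growth. TGI denotes the concentration required for complete inhibition of growth.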

What was measured:
Experiment in all cases: growth of human tumour cells (NCI), 48 h
K-562 leukemia = test system: K-562 leukemia
OVCAR-8 ovarian = test system: OVCAR-8 ovarian
PC-3 prostate = test system: PC-3 prostate
EKVX NSCLC = test system: EKVX NSCLC
SNB-19 CNS = test system: SNB-19 CNS
CAKI-1 renal = test system: CAKI-1 renal
LOX IMVI melanoma = test system: LOX IMVI melanoma
SF-268 CNS = test system: SF-268 CNS
A549 NSCLC = test system: A549 NSCLC
NCI/ADR-RES ovarian = test system: NCI/ADR-RES ovarian
MALME-3M melanoma = test system: MALME-3M melanoma
HOP-62 NSCLC = test system: HOP-62 NSCLC
UACC-257 melanoma = test system: UACC-257 melanoma
HCC-2998 colon = test system: HCC-2998 colon
UACC-62 melanoma = test system: UACC-62 melanoma
MCF7 breast = test system: MCF7 breast
NCI-H460 lung = test system: NCI-H460 lung
ACHN renal = test system: ACHN renal
SK-MEL-28 melanoma = test system: SK-MEL-28 melanoma
OVCAR-3 ovarian = test system: OVCAR-3 ovarian
COLO 205 colon = test system: COLO 205 colon
T-47D breast = test system: T-47D breast
HCT-116 colon = test system: HCT-116 colon
HS 578T breast = test system: HS 578T breast
RPMI-8226 leukemia = test system: RPMI-8226 leukemia
SN12C renal = test system: SN12C renal
MDA-MB-231 breast = test system: MDA-MB-231 breast
HOP-92 NSCLC = test system: HOP-92 NSCLC
HCT-15 colon = test system: HCT-15 colon
NCI-H23 lung = test system: NCI-H23 lung
NCI-H226 lung = test system: NCI-H226 lung
OVCAR-5 ovarian = test system: OVCAR-5 ovarian
CCRF-CEM leukemia = test system: CCRF-CEM leukemia
SF-295 CNS = test system: SF-295 CNS
OVCAR-4 ovarian = test system: OVCAR-4 ovarian
MDA-MB-435 = test system: MDA-MB-435
RXF 393 renal = test system: RXF 393 renal
SR leukemia = test system: SR leukemia
SK-MEL-5 melanoma = test system: SK-MEL-5 melanoma
DU-145 prostate = test system: DU-145 prostate
U251 CNS = test system: U251 CNS
KM12 colon = test system: KM12 colon
SK-OV-3 ovarian = test system: SK-OV-3 ovarian
MOLT-4 leukemia = test system: MOLT-4 leukemia
TK-10 renal = test system: TK-10 renal
HL-60(TB) leukemia = test system: HL-60(TB) leukemia
HT29 colon = test system: HT29 colon
NCI-H522 lung = test system: NCI-H522 lung
A498 renal = test system: A498 renal
SF-539 CNS = test system: SF-539 CNS
786-0 renal = test system: 786-0 renal
SW-620 colon = test system: SW-620 colon
SK-MEL-2 melanoma = test system: SK-MEL-2 melanoma
SNB-75 CNS = test system: SNB-75 CNS
IGROV1 ovarian = test system: IGROV1 ovarian
UO-31 renal = test system: UO-31 renal
BT-549 breast = test system: BT-549 breast
M14 melanoma = test system: M14 melanoma

SMILES: CC1=C(CCC=NNC(N)=O)C2=C(C)C3(CC3)[C@@](C)(O)C(=O)C2=C1
- GI50 (K-562 leukemia): 3430 nM
- TGI (K-562 leukemia): 17800 nM
- GI50 (OVCAR-8 ovarian): 238 nM
- TGI (OVCAR-8 ovarian): 926 nM
- GI50 (PC-3 prostate): 528 nM
- TGI (PC-3 prostate): 5240 nM
- GI50 (EKVX NSCLC): 1440 nM
- TGI (EKVX NSCLC): 6160 nM
- GI50 (SNB-19 CNS): 717 nM
- TGI (SNB-19 CNS): 7860 nM
- GI50 (CAKI-1 renal): 281 nM
- TGI (CAKI-1 renal): 2800 nM
- GI50 (LOX IMVI melanoma): 457 nM
- TGI (LOX IMVI melanoma): 2110 nM
- GI50 (SF-268 CNS): 318 nM
- TGI (SF-268 CNS): 4570 nM
- GI50 (A549 NSCLC): 281 nM
- TGI (A549 NSCLC): 1350 nM
- GI50 (NCI/ADR-RES ovarian): 420 nM
- TGI (NCI/ADR-RES ovarian): 4580 nM
- GI50 (MALME-3M melanoma): 316 nM
- TGI (MALME-3M melanoma): 913 nM
- GI50 (HOP-62 NSCLC): 234 nM
- TGI (HOP-62 NSCLC): 753 nM
- GI50 (UACC-257 melanoma): 538 nM
- TGI (UACC-257 melanoma): 2130 nM
- GI50 (HCC-2998 colon): 350 nM
- TGI (HCC-2998 colon): 1150 nM
- GI50 (UACC-62 melanoma): 488 nM
- TGI (UACC-62 melanoma): 1310 nM
- GI50 (MCF7 breast): 426 nM
- TGI (MCF7 breast): 12100 nM
- GI50 (NCI-H460 lung): 159 nM
- TGI (NCI-H460 lung): 3740 nM
- GI50 (ACHN renal): 250 nM
- TGI (ACHN renal): 695 nM
- GI50 (SK-MEL-28 melanoma): 700 nM
- TGI (SK-MEL-28 melanoma): 2150 nM
- GI50 (OVCAR-3 ovarian): 415 nM
- TGI (OVCAR-3 ovarian): 3250 nM
- GI50 (COLO 205 colon): 230 nM
- TGI (COLO 205 colon): 647 nM
- GI50 (T-47D breast): 245 nM
- TGI (T-47D breast): 1480 nM
- GI50 (HCT-116 colon): 272 nM
- TGI (HCT-116 colon): 2480 nM
- GI50 (HS 578T breast): 1860 nM
- TGI (HS 578T breast): 6280 nM
- GI50 (RPMI-8226 leukemia): 5580 nM
- TGI (RPMI-8226 leukemia): 32600 nM
- GI50 (SN12C renal): 369 nM
- TGI (SN12C renal): 2500 nM
- GI50 (MDA-MB-231 breast): 412 nM
- TGI (MDA-MB-231 breast): 2000 nM
- GI50 (HOP-92 NSCLC): 238 nM
- TGI (HOP-92 NSCLC): 702 nM
- GI50 (HCT-15 colon): 281 nM
- TGI (HCT-15 colon): 1320 nM
- GI50 (NCI-H23 lung): 174 nM
- TGI (NCI-H23 lung): 743 nM
- GI50 (NCI-H226 lung): 421 nM
- TGI (NCI-H226 lung): 3810 nM
- GI50 (OVCAR-5 ovarian): 325 nM
- TGI (OVCAR-5 ovarian): 1420 nM
- GI50 (CCRF-CEM leukemia): 3930 nM
- TGI (CCRF-CEM leukemia): 26200 nM
- GI50 (SF-295 CNS): 289 nM
- TGI (SF-295 CNS): 1150 nM
- GI50 (OVCAR-4 ovarian): 439 nM
- TGI (OVCAR-4 ovarian): 1700 nM
- GI50 (MDA-MB-435): 1320 nM
- TGI (MDA-MB-435): 3250 nM
- GI50 (RXF 393 renal): 145 nM
- TGI (RXF 393 renal): 306 nM
- GI50 (SR leukemia): 2580 nM
- TGI (SR leukemia): 61800 nM
- GI50 (SK-MEL-5 melanoma): 231 nM
- TGI (SK-MEL-5 melanoma): 617 nM
- GI50 (DU-145 prostate): 120 nM
- TGI (DU-145 prostate): 5030 nM
- GI50 (U251 CNS): 440 nM
- TGI (U251 CNS): 4190 nM
- GI50 (KM12 colon): 1640 nM
- TGI (KM12 colon): 5380 nM
- GI50 (SK-OV-3 ovarian): 246 nM
- TGI (SK-OV-3 ovarian): 666 nM
- GI50 (MOLT-4 leukemia): 2790 nM
- TGI (MOLT-4 leukemia): 20900 nM
- GI50 (TK-10 renal): 318 nM
- TGI (TK-10 renal): 1610 nM
- GI50 (HL-60(TB) leukemia): 274 nM
- TGI (HL-60(TB) leukemia): 1770 nM
- GI50 (HT29 colon): 351 nM
- TGI (HT29 colon): 1900 nM
- GI50 (NCI-H522 lung): 515 nM
- TGI (NCI-H522 lung): 1960 nM
- GI50 (A498 renal): 317 nM
- TGI (A498 renal): 902 nM
- GI50 (SF-539 CNS): 225 nM
- TGI (SF-539 CNS): 614 nM
- GI50 (786-0 renal): 232 nM
- TGI (786-0 renal): 623 nM
- GI50 (SW-620 colon): 5790 nM
- TGI (SW-620 colon): 19600 nM
- GI50 (SK-MEL-2 melanoma): 520 nM
- TGI (SK-MEL-2 melanoma): 1030 nM
- GI50 (SNB-75 CNS): 253 nM
- TGI (SNB-75 CNS): 748 nM
- GI50 (IGROV1 ovarian): 248 nM
- TGI (IGROV1 ovarian): 1270 nM
- GI50 (UO-31 renal): 160 nM
- TGI (UO-31 renal): 373 nM
- GI50 (BT-549 breast): 226 nM
- TGI (BT-549 breast): 695 nM
- GI50 (M14 melanoma): 196 nM
- TGI (M14 melanoma): 449 nM
